Reference: ChEMBL document CHEMBL3774357, “Discovery of potent and selective CDK8 inhibitors from an HSP90 pharmacophore” (Bioorg Med Chem Lett, 2016)
In brackets after ≈: the same amount, converted by molar mass.

Experiments:
[1] = physchem
[2] = Thermodynamic solubility of the compound; assay type: physicochemical; conditions: read-out: Therm_solubility
[3] = Solubility of the compound in PBS at pH 7.4; assay type: physicochemical
[4] = Volume of distribution at steady state in rat; assay type: ADME, organism-based; conditions: in vivo, read-out: Vdss
[5] = Oral bioavailability in dog; assay type: ADME, organism-based, Canis lupus familiaris; conditions: in vivo
[6] = Oral bioavailability in mouse; assay type: ADME, organism-based; conditions: in vivo
[7] = Solubility of the compound in FaSSIF at pH 6.4; assay type: physicochemical
[8] = Volume of distribution at steady state in dog; assay type: ADME, organism-based, Canis lupus familiaris; conditions: in vivo, read-out: Vdss
[9] = Oral bioavailability in rat; assay type: ADME, organism-based; conditions: in vivo
[10] = Volume of distribution at steady state in monkey; assay type: ADME, organism-based, Macaca mulatta; conditions: rhesus monkey, in vivo; read-out: Vdss
[11] = Volume of distribution at steady state in mouse; assay type: ADME, organism-based; conditions: in vivo, read-out: Vdss
[12] = Oral bioavailability in monkey; assay type: ADME, organism-based, Macaca mulatta; conditions: rhesus monkey, in vivo
[13] = Solubility of the compound in FeSSIF at pH 5.2; assay type: physicochemical

solubility kinetic [1] | Compound | other results
153 µM (≈ 58.4 µg/mL) | Cn1cc(-c2ccc(Cc3n[nH]c4ccc(NS(C)(=O)=O)cc34)cc2)cn1 | 
170 µM (≈ 68.2 µg/mL) | COC1CN(C(=O)c2ccc3[nH]nc(Cc4ccc(-c5cnn(C)c5)cc4)c3c2)C1 | 
96 µM (≈ 35.4 µg/mL) | Cn1cc(-c2ccc(Cc3n[nH]c4ccc(-c5nccn5C)cc34)cc2)cn1 | 
170 µM (≈ 68.2 µg/mL) | Cn1cc(-c2ccc(Cc3n[nH]c4ccc(C(=O)N5CCOCC5)cc34)cc2)cn1 | 
192 µM (≈ 61.3 µg/mL) | CNC(=O)c1ccc2[nH]nc(Cc3ccc4cnn(C)c4c3)c2c1 | 
> 200 µM | COC1CN(C(=O)c2ccc3[nH]nc(Cc4ccc5c(cnn5C)c4)c3c2)C1 | 
157 µM (≈ 62.1 µg/mL) | Cn1ncc2cc(Cc3n[nH]c4ccc(C(=O)N5CCC(F)(F)C5)cc34)ccc21 | 
89 µM (≈ 36.3 µg/mL) | Cn1cc(-c2ccc(Cc3n[nH]c4ccc(C(=O)N5CC(F)(F)C5)cc34)cc2)cn1 | 
181 µM (≈ 72.7 µg/mL) | Cn1cc(-c2ccc(Cc3n[nH]c4ccc(C(=O)N5CC[C@@H](O)C5)cc34)cc2)cn1 | 
200 µM (≈ 80.3 µg/mL) | Cn1cc(-c2ccc(Cc3n[nH]c4ccc(C(=O)N5CC[C@H](O)C5)cc34)cc2)cn1 | 
196 µM (≈ 75.9 µg/mL) | Cn1cc(-c2ccc(Cc3n[nH]c4ccc(C(=O)N5CC(O)C5)cc34)cc2)cn1 | 
115 µM (≈ 39.7 µg/mL) | CC(=O)Nc1ccc2[nH]nc(Cc3ccc(-c4cnn(C)c4)cc3)c2c1 | 
> 200 µM | CNC(=O)c1ccc2[nH]nc(Cc3ccc4c(cnn4C)c3)c2c1 | solubility [3]: 6 µg/mL (≈ 18.8 µM); Vd [4]: 0.85 L/kg; bioavailability [5]: 85%; bioavailability [6]: 50%; solubility [7]: 32 µg/mL (≈ 100 µM); solubility thermodynamic [2]: 6 µg/mL (≈ 18.8 µM); Vd [8]: 1.8 L/kg; bioavailability [9]: 88%; Vd [10]: 0.95 L/kg; Vd [11]: 0.69 L/kg; bioavailability [12]: 26%; solubility [13]: 59 µg/mL (≈ 185 µM)
183 µM (≈ 71.1 µg/mL) | CC(=O)NCCNc1ccc2[nH]nc(Cc3ccc(-c4cnn(C)c4)cc3)c2c1 | 
76 µM (≈ 28.2 µg/mL) | Cn1cc(-c2ccc(Cc3n[nH]c4ccc(C(=O)NC5CC5)cc34)cc2)cn1 | 
53 µM (≈ 20.2 µg/mL) | Cn1cc(-c2ccc(Cc3n[nH]c4ccc(-c5cc(N)ccn5)cc34)cc2)cn1 | 
167 µM (≈ 46.7 µg/mL) | CNC(=O)c1ccc2[nH]nc(Cc3cccc(C)c3)c2c1 | 

Further lines, the compound ahead of its results:

Compound | solubility kinetic [1] | other results
Cn1cc(-c2ccc(Cc3n[nH]c4ccc(S(=O)(=O)NC5CC5)cc34)cc2)cn1 | 107 µM (≈ 43.6 µg/mL) | 
Cn1cc(-c2ccc(Cc3n[nH]c4ccc(N5CCOCC5)cc34)cc2)cn1 | 153 µM (≈ 57.1 µg/mL) | 
CNC(=O)c1ccc2[nH]nc(CC(C)C)c2c1 | > 200 µM | 
Cn1ncc2cc(Cc3n[nH]c4ccc(C(=O)N5CC[C@H](O)C5)cc34)ccc21 | > 200 µM | 
CNC(=O)c1ccc2[nH]nc(Cc3ccc(OC)c(OC)c3)c2c1 | 176 µM (≈ 57.3 µg/mL) | 
Cn1cc(-c2ccc(Cc3n[nH]c4ccc(C(=O)N5CCCCC5)cc34)cc2)cn1 | 106 µM (≈ 42.3 µg/mL) | 
Cn1cnc(-c2ccc3[nH]nc(Cc4ccc(-c5cnn(C)c5)cc4)c3c2)c1 | 6 µM (≈ 2.21 µg/mL) | 
CNC(=O)c1ccc2[nH]nc(Cc3ccc(-c4cnn(C)c4)cc3)c2c1 | 169 µM (≈ 58.4 µg/mL) | solubility thermodynamic [2]: 6 µg/mL (≈ 17.4 µM)
Cn1cc(-c2ccc(Cc3n[nH]c4ccc(N5CCCC5=O)cc34)cc2)cn1 | 147 µM (≈ 54.6 µg/mL) | 
Cn1cc(-c2ccc(Cc3n[nH]c4ccc(C(=O)N5CCNCC5)cc34)cc2)cn1 | 186 µM (≈ 74.5 µg/mL) | 
Cn1cc(-c2ccc(Cc3n[nH]c4ccc(C(N)=O)cc34)cc2)cn1 | 173 µM (≈ 57.3 µg/mL) | 
Cn1cc(-c2ccc(Cc3n[nH]c4ccc(C(=O)N5CCC(F)(F)C5)cc34)cc2)cn1 | 104 µM (≈ 43.8 µg/mL) | 
CNC(=O)c1ccc2[nH]nc(Cc3ccc(-c4cnn(CC(C)(C)O)c4)cc3)c2c1 | 182 µM (≈ 73.4 µg/mL) | solubility thermodynamic [2]: 26 µg/mL (≈ 64.4 µM)
